Source: US12479905B2, “Peptide used for immunotherapeutics” (3H BIO. CO., LTD., priority 2020, dated 2025)
Non-standard residues stand in square brackets, D forms with d. No end group written: not given here. Cha = N[C@@H](CC1CCCCC1)C(=O)O; Ahx = NCCCCCC(=O)O

Experiments:
[1] = tested on: RNVPPIFNDVYWIAF (SEQ ID NO: 6); assay: Confirmation of antibody titer in serum by ELISA using the target antigen (Experimental Example 7); format: in vivo, C57BL/6J, male mice; conditions: serum at 11, 16 and 19 weeks of age; ELISA antigen SEQ ID NO: 6 only; administration at 8, 10, 12 and 14 weeks
Source text: In order to determine whether the composition for in vivo administration administered in Experimental Example 1.7 induced an antibody against the B-cell epitope, a method for confirming the antibody titer using the target antigen is as follows. In particular, the target antigen is RNVPPIFNDVYWIAF (SEQ ID NO: 6) or ApoB100. The time to confirm the antibody titer may vary as needed, and the time was specifically described for each experimental example.
1-1) For each injection of a composition for in vivo administration into a test subject, collect about 200 μL of blood from the subject's tail vein one week after the injection.
1-2) After placing the collected blood at 4° C. for one hour, perform centrifugation of the blood sample at 14,000 rpm for 10 minutes to separate the serum, which is the supernatant.
1-3) Dilute the target antigen to a concentration of 50 μg/100 μL in coating buffer (0.05 M, bicarbonate, pH 9.6) and add the antigen to a 96-well plate in an amount of 50 μg per well, and allow them to react overnight at 4° C. so that the peptide is coated on the wall of the well.
1-4) Wash the target antigen-coated plate three times using 300 μL of phosphate buffered saline (PBS)-T (0.05% with Tween-20) per well.
2-1) Add 300 μL of a 0.5% casein blocking solution per well in the plate, and allow to react overnight at 4° C.
2-2) Wash the plate three times with 300 μL of PBS-T per well.
3-1) As the primary antibody reaction, dilute the separated serum to an appropriate concentration, add it in an amount of 100 μL per well, and allow to react at 37° C. for one hour. In particular, after the initial injection, subject the serum to serial dilution by diluting the same to 1/20 to 1/1,000 in the experiment, and 1/500 to 1/10,000 depending on the subject during the experiment after the second to third injections. As a positive control, use a monoclonal antibody against the peptide of SEQ ID NO: 41 after purification.
3-2) After the reaction of 3-1, wash the plate three times with 300 μL of PBS-T per well.
4-1) As a secondary antibody reaction, add 100 μL of horseradish peroxidase (HRP) conjugated to anti-mouse IgG antibody recognizing a mouse antibody per well, and allow them to react at 37° C. for one hour.
4-2) After the reaction of 4-1), wash the plate three times with 300 μL of PBS-T per well.
5-1) Add 100 μL of a o-phenylenediamine dihydrochloride (OPD) solution per well, and allow to react at 37° C. for 10 minutes, and measure the absorbance at OD 450 nm (Synergy HT microplate reader, BioTek).
Obtain the antibody titer in serum by converting the extinction coefficient, which is measured based on 1 mg/mL concentration of the monoclonal antibody against the target antibody as a positive control.
(2) According to Experimental Example 1.9, the antibody titers observed in a test subject for each experimental group at 11 weeks, 16 weeks, and 19 weeks were confirmed. In particular, the target antigen was determined using RNVPPIFNDVYWIAF (SEQ ID NO: 6).

[2] = Weight measurement of high-fat-diet mice after in vivo administration of peptide composition (Experimental Example 7); conditions: C57BL/6J male, high-fat diet after 10 weeks; intramuscular administration at 8, 10, 12 and 14 weeks of age; 50 μg peptide/100 μL with PHAD and Alhydrogel
Source text: In order to test the effect of the composition for in vivo administration prepared in Experimental Example 1.5, C57BL/6, Balbc and/or ICR species were used as experimental mice (purchased from Central Lab Animal Inc.). Although there were some differences in species, the mice purchased were 7-week-old on average and they were acclimatized for one week, and were used for experiments when they were 8 weeks of age. Experimental mice were reared under the conditions of a constant temperature and humidity environment within the temperature range of 23±1° C., relative humidity of 50±5%, and an environment controlled as 12-hour light room/12 hour dark room. Drinking water and food were provided ad libitum. In the case of a normal diet (purchased from Central Lab Animal Inc.), it consisted of 20% protein, 70% carbohydrate, and 10% fat based on total calories, whereas in the case of an obesity-inducing diet (purchased from Research diets), it consisted of a high-fat diet including 20% protein, 20% carbohydrate, and 60% fat based on total calories. Experimental mice were divided into each group to have different dietary conditions and composition administration conditions, and experiments were performed with the number of individuals that could be statistically processed for each experimental group. Detailed conditions are as disclosed in each specific experimental example.
For a test subject prepared in Experimental Example 1.6, different compositions were administered for each experimental group. All administration compositions were administered by an intramuscular injection method, and after disinfecting muscles of both thighs of each mouse with an alcohol swab, 50 μL each with a total amount of 100 μL was injected.
From the time of arrival to the end of the experiment for each experimental group of mice, the average was calculated after measuring three times per week to obtain the average weight value for each week. After completion of the experiment, each mouse was anesthetized, organs were dissected, and weights were measured, and the average was obtained for each experimental group.
According to Experimental Example 1.7, the composition for in vivo administration was administered to the test subject. In particular, the administration cycle was as follows: 8 weeks, 10 weeks, 12 weeks, and 14 weeks of age.
(1) According to Experimental Example 1.8, the weight of a test subject for each experimental group was measured.

| Substance | antibody titer to RNVPPIFNDVYWIAF (SEQ ID NO: 6) [1] | weight loss effect compared to the control group (Obese) [2] |
| --- | --- | --- |
| GSHHHHHHGSDDDDKZaK(Cha)VAAWTLKAAaZRNVPPIFNDVYWIAF (GSHHHHHHGSDDDDK[Ahx][dA]K[Cha]VAAWTLKAA[dA][Ahx]RNVPPIFNDVYWIAF) [P3] | observed | weight loss effect appeared |
| KTTKQSFDLSVKAQYKKNKHZaK(Cha)VAAWTLKAAaZCRFRGLISLSQVYLS (KTTKQSFDLSVKAQYKKNKH[Ahx][dA]K[Cha]VAAWTLKAA[dA][Ahx]CRFRGLISLSQVYLS) [P4] |  | there was a weight loss effect |
| RNVPPIFNDVYWIAFCRFRGLISLSQVYLSZaK(Cha)VAAWTLKAAaZ (RNVPPIFNDVYWIAFCRFRGLISLSQVYLS[Ahx][dA]K[Cha]VAAWTLKAA[dA][Ahx]) [P5] |  | a weight loss effect is observed |
| RNVPPIFNDVYWIAFK(Cha)VAAWTLKAA (RNVPPIFNDVYWIAFK[Cha]VAAWTLKAA) [P8] | shown | weight loss effect was shown |
| RNVPPIFNDVYWIAFK(Cha)VAAWTLKAAHHHHHH (RNVPPIFNDVYWIAFK[Cha]VAAWTLKAAHHHHHH) [P9] | observed | weight loss effect appeared |
| RNVPPIFNDVYWIAFZaK(Cha)VAAWTLKAAaZ (RNVPPIFNDVYWIAF[Ahx][dA]K[Cha]VAAWTLKAA[dA][Ahx]) [P7] | observed | weight loss effect appeared |
| RNVPPIFNDVYWIAFZaK(Cha)VAAWTLKAAaZCRFRGLISLSQVYLS (RNVPPIFNDVYWIAF[Ahx][dA]K[Cha]VAAWTLKAA[dA][Ahx]CRFRGLISLSQVYLS) [P1] | there were individuals showing a large antibody titer depending on the individual, and there were also individuals which showed no antibody titer | weight loss effect |
| RNVPPIFNDVYWIAFZaK(Cha)VAAWTLKAAaZGSHHHHHHGSDDDDK (RNVPPIFNDVYWIAF[Ahx][dA]K[Cha]VAAWTLKAA[dA][Ahx]GSHHHHHHGSDDDDK) [P2] | observed | weight loss effect appeared |
